Assays:
[1] = target: Full length WRN protein (aa 2-1432) (Homo sapiens (Human), UniProt Q14191); experiment: WRN ATPase ADP-Glo biochemical assay, Assay Format A (10 μM ATP); conditions: 0.25 nM WRN, 100 nM C6.18 ssDNA, 30 min preincubation, read-out: ATPase ADPGlo AC50 (uM)- Assay Format A
Description: Full length Werner helicase construct (Uniprot: Q14191) with an N-terminal FLAG-AVI-TEV tag was expressed using the Sf9 cell/baculovirus expression system. The harvested cell pellet was resuspended and lysed in a glass homogenizer. After insoluble material was removed by centrifugation, the helicase protein was first purified with FLAG affinity resin and then further purified through a size-exclusion chromatography column. Peak fractions containing the purified protein were concentrated, split into aliquots and frozen in liquid nitrogen to be thawed before use. Biochemical Assay Description (ATPase activity)-Assay Format A WRN activity was measured using an ATPase assay. Full length WRN protein (aa 2-1432) (production described separately) was used for the biochemical activity assays. The 39-mer ssDNA “C6.18” [NT] was purchased from IDT and used as a substrate. Quantification of ATP hydrolysis was evaluated using the ADP-Glo assay kit (Promega, Madison, WI). An enzyme titration time-course was performed to determine the optimal assay conditions. […] To evaluate the inhibitory effects of the compounds, 11-point 3-fold serial dilutions were prepared in DMSO. 50 nL of each concentration in duplicate was preincubated for 30 minutes in a 384-well microplate (Greiner #784075) with 5 μL of 0.5 nM WRN in assay buffer. The reaction was initiated by adding 5 μL of 200 nM C6.18 DNA with 20 μM ATP and was allowed to proceed for 30 minutes at room temperature. The reaction was stopped with 10 μL ADP-Glo reagent for 1 hour to remove unreacted ATP. Lastly, 20 μL ATP detection reagent was added and incubated for 1 hour to generate the luminescence signal. Control wells included “high controls” with no inhibition (DMSO, no compound) and “low controls” with maximum inhibition (no WRN). Luminescence was recorded on a PHERAstar (BMG Labtech, Ortenberg, Germany). Data was fit using the “Smart Fit” method within the Genedata Screener Software (Basel, Switzerland) to obtain IC50 values using four-parameter fits. Reported IC50s are the geometric means of at least two independent trials.

HCT116 cells = experiment: HCT116 (MSI) 7 day viability, CellTiter Glo; assay type: cell-based; conditions: Homo sapiens, HCT-116, 168 h, 7 days, read-out: HCT116 (MSI) Viability 7 Day Abs AC50
Method in brief: (§1)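 HCT116 (50 cells/well) or HT29 (500 cells/well) exposed 7 days at 37° C, 5% CO2, to 10-point 3-fold compound dilutions. Viability measured by CellTiter Glo luminescence, background from cell-free wells; IC50 from four-parameter logistic fit, geometric mean of at least 2 replicates.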

HT29 cells = experiment: HT29 (MSS) 7 day viability, CellTiter Glo; assay type: cell-based; conditions: Homo sapiens, HT-29, 168 h, 7 days, read-out: HT29 (MSS) Viability 7 Day CTGAbs AC50
Method in brief: as §1

Sequence of Full length WRN protein (aa 2-1432) (Q14191 2-1432): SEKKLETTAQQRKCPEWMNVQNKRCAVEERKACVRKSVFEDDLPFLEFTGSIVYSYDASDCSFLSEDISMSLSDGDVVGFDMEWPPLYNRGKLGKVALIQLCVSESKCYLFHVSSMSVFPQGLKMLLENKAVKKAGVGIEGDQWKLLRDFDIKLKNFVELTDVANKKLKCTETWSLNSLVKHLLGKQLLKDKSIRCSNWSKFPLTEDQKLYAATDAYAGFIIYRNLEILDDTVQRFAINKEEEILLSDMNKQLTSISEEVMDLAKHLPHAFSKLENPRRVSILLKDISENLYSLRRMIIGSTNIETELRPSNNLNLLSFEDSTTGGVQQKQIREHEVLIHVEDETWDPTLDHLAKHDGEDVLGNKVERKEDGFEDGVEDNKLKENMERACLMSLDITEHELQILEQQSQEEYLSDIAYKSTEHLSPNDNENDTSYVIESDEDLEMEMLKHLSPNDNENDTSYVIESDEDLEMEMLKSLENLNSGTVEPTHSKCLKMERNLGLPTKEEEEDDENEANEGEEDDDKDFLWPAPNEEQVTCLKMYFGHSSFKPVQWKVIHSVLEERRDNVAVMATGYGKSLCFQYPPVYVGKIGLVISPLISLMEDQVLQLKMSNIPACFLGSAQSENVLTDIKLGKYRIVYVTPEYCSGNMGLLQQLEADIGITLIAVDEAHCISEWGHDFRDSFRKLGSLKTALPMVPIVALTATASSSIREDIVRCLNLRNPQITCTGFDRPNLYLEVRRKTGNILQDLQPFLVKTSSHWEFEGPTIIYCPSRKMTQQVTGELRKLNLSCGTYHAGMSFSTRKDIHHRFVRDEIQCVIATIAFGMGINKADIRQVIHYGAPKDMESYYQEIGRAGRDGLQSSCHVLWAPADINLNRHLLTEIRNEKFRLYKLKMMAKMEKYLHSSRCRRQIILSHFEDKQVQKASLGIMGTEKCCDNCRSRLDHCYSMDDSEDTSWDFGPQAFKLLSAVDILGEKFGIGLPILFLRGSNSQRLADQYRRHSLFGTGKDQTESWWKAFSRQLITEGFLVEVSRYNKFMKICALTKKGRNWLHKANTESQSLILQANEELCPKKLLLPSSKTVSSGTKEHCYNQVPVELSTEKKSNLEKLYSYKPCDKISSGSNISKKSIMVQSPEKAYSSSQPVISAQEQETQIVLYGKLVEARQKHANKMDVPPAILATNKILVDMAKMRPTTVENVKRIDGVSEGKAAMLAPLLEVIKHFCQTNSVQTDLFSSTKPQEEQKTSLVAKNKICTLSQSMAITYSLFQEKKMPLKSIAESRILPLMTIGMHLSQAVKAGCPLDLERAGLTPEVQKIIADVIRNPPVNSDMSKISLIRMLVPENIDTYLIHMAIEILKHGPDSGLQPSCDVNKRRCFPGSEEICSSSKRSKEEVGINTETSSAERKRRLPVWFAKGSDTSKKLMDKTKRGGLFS

| Compound | AC50 [1] [µM] | AC50 (HCT116 cells) [nM] | AC50 (HT29 cells) [nM] |
| --- | --- | --- | --- |
| CC(C)c1ccc(-n2nc3c4c2CCN(C(=O)c2ccc(Br)c5[nH]cnc25)C4CN(C(=O)C2=CCC2)CC3)cc1 (stereo not drawn) [Compound 16, (7-bromo-1H-benzo[d]imidazol-4-yl)(7-(cyclobut-1-ene-1-carbonyl)-2-(4-isopropylphenyl)-2,3,4,5a,6,7,8,9-octahydro-5H-1,2,5,7-tetraazabenzo[cd]azulen-5-yl)methanone] | > 0.055 | > 1000 | > 3000 |
| C=CC(=O)N1Cc2nn(-c3ccc(C(C)C)cc3C)c3c2C(C1)N(C(=O)c1ccc(Br)c(O)c1)CC3 (stereo not drawn) [Compound 35, 1-(6-(4-bromo-3-hydroxybenzoyl)-1-(4-isopropyl-2-methylphenyl)-1,5,5a,6,7,8-hexahydropyrazolo[3,4,5-de][1,7]naphthyridin-4(3H)-yl)prop-2-en-1-one] | 0.005 to 0.015 | 100 to 250 | > 3000 |
| C=CC(=O)N1CCOCc2nn(-c3ccc(C(C)C)cc3C)c3c2C(C1)N(C(=O)c1ccc(Br)c(O)c1)CC3 (stereo not drawn) [Compound 36, 1-(5-(4-bromo-3-hydroxybenzoyl)-2-(4-isopropyl-2-methylphenyl)-2,4,5,5a,6,8,9,11-octahydro-10-oxa-1,2,5,7-tetraazacyclonona[cd]inden-7(3H)-yl)prop-2-en-1-one] | 0.015 to 0.055 | 500 to 1000 | > 3000 |
| C=CC(=O)N1CCn2nc(-c3ccc(C(C)C)cc3)c3c2C(C1)N(C(=O)c1ccc(Br)c(O)c1)CC3 (stereo not drawn) [Compound 37, 1-(5-(4-bromo-3-hydroxybenzoyl)-2-(4-isopropylphenyl)-4,5,5a,6,8,9-hexahydro-1,5,7,9a-tetraazabenzo[cd]azulen-7(3H)-yl)prop-2-en-1-one] | 0.015 to 0.055 | > 1000 | > 3000 |
| C=CC(=O)N1CCOc2nn(-c3ccc(C(C)C)cc3)c3c2C(C1)N(C(=O)c1ccc(Br)c(O)c1)CC3 (stereo not drawn) [Compound 48, 1-(5-(4-bromo-3-hydroxybenzoyl)-2-(4-isopropylphenyl)-2,3,4,5,5a,6,8,9-octahydro-7H-10-oxa-1,2,5,7-tetraazacycloocta[cd]inden-7-yl)prop-2-en-1-one] | 0.0015 to 0.005 | 100 to 250 | > 3000 |
| CN(C)CC=CC(=O)N1CCOc2nn(-c3ccc(C4CCC4)cc3)c3c2C(C1)N(C(=O)c1ccc(Br)c2[nH]cnc12)CC3 (stereo not drawn) [Compound 51, 1-(5-(7-bromo-1H-benzo[d]imidazole-4-carbonyl)-2-(4-cyclobutylphenyl)-2,3,4,5,5a,6,8,9-octahydro-7H-10-oxa-1,2,5,7-tetraazacycloocta[cd]inden-7-yl)-4-(dimethylamino)but-2-en-1-one] | 0.015 to 0.055 | > 1000 | > 3000 |
| C=CC(=O)N1CCN(C)c2nn(-c3ccc(C(C)C)cc3)c3c2C(C1)N(C(=O)c1ccc(Br)c2[nH]cnc12)CC3 (stereo not drawn) [Compound 56, 1-(5-(7-bromo-1H-benzo[d]imidazole-4-carbonyl)-2-(4-isopropylphenyl)-10-methyl-2,4,5,5a,6,8,9,10-octahydro-1,2,5,7,10-pentaazacycloocta[cd]inden-7(3H)-yl)prop-2-en-1-one] | 0.015 to 0.055 | 250 to 500 | > 3000 |
| C=CC(=O)N1CCc2nn(-c3ccc(C4CC4)cc3)c3c2C(C1)N(C(=O)c1ccc(-n2cccn2)nc1)CC3 (stereo not drawn) [Compound 98, 1-(5-(6-(1H-pyrazol-1-yl)nicotinoyl)-2-(4-cyclopropylphenyl)-2,3,4,5,5a,6,8,9-octahydro-7H-1,2,5,7-tetraazabenzo[cd]azulen-7-yl)prop-2-en-1-one] | 0.015 to 0.055 | 250 to 500 | > 3000 |
| C=CC(=O)N1CCc2nn(-c3ccc(C4CC4)cc3)c3c2C(C1)N(C(=O)c1ccc(C(F)(F)F)nn1)CC3 (stereo not drawn) [Compound 115, 1-(2-(4-cyclopropylphenyl)-5-(6-(trifluoromethyl)pyridazine-3-carbonyl)-2,3,4,5,5a,6,8,9-octahydro-7H-1,2,5,7-tetraazabenzo[cd]azulen-7-yl)prop-2-en-1-one] | 0.015 to 0.055 | 500 to 1000 | > 3000 |
| C=CC(=O)N1CCc2nn(-c3ccc(C4CC4)cc3)c3c2C(C1)N(C(=O)c1cc2n(n1)CCN(C)S2(=O)=O)CC3 (stereo not drawn) [Compound 116, 1-(2-(4-cyclopropylphenyl)-5-(2-methyl-1,1-dioxido-3,4-dihydro-2H-pyrazolo[1,5-e][1,2,5]thiadiazine-7-carbonyl)-2,3,4,5,5a,6,8,9-octahydro-7H-1,2,5,7-tetraazabenzo[cd]azulen-7-yl)prop-2-en-1-one] | > 0.055 | > 1000 | > 3000 |
| C=CC(=O)N1CCc2nn(-c3ccc(C4CC4)cc3)c3c2C(C1)N(C(=O)c1ccc(OCC(F)(F)F)nc1)CC3 (stereo not drawn) [Compound 118, 1-(2-(4-cyclopropylphenyl)-5-(6-(2,2,2-trifluoroethoxy)nicotinoyl)-2,3,4,5,5a,6,8,9-octahydro-7H-1,2,5,7-tetraazabenzo[cd]azulen-7-yl)prop-2-en-1-one] | > 0.055 | > 1000 | > 3000 |
| C=CC(=O)N1CCc2nn(-c3ccc(C4CC4)cc3)c3c2C(C1)N(C(=O)c1ccc(C2(C#N)CC2)nc1)CC3 (stereo not drawn) [Compound 119, 1-(5-(7-acryloyl-2-(4-cyclopropylphenyl)-3,4,5,5a,6,7,8,9-octahydro-2H-1,2,5,7-tetraazabenzo[cd]azulene-5-carbonyl)pyridin-2-yl)cyclopropane-1-carbonitrile] | 0.015 to 0.055 | > 1000 | > 3000 |
| C=CC(=O)N1CCc2nn(-c3ccc(C4CC4)cc3)c3c2C(C1)N(C(=O)c1cnc([N+](=O)[O-])c(O)c1)CC3 (stereo not drawn) [Compound 120, 1-(2-(4-cyclopropylphenyl)-5-(5-hydroxy-6-nitronicotinoyl)-2,3,4,5,5a,6,8,9-octahydro-7H-1,2,5,7-tetraazabenzo[cd]azulen-7-yl)prop-2-en-1-one] | 0.0015 to 0.005 | > 1000 | > 3000 |
| C=CC(=O)N1CCc2nn(-c3ccc(C4CC4)cc3)c3c2C(C1)N(C(=O)c1ccc(OC(C)C)nc1)CC3 (stereo not drawn) [Compound 122, 1-(2-(4-cyclopropylphenyl)-5-(6-isopropoxynicotinoyl)-2,3,4,5,5a,6,8,9-octahydro-7H-1,2,5,7-tetraazabenzo[cd]azulen-7-yl)prop-2-en-1-one] | 0.015 to 0.055 | 500 to 1000 | > 3000 |
| C=CC(=O)N1CCc2nn(-c3ccc(C4CC4)cc3)c3c2C(C1)N(C(=O)c1ccc(C#N)nc1)CC3 (stereo not drawn) [Compound 123, 5-(7-acryloyl-2-(4-cyclopropylphenyl)-3,4,5,5a,6,7,8,9-octahydro-2H-1,2,5,7-tetraazabenzo[cd]azulene-5-carbonyl)picolinonitrile] | 0.015 to 0.055 | 250 to 500 | > 3000 |
| C=CC(=O)N1CCc2nn(-c3ccc(C4CC4)cc3)c3c2C(C1)N(C(=O)c1ccc(C(F)F)nc1)CC3 (stereo not drawn) [Compound 126, 1-(2-(4-cyclopropylphenyl)-5-(6-(difluoromethyl)nicotinoyl)-2,3,4,5,5a,6,8,9-octahydro-7H-1,2,5,7-tetraazabenzo[cd]azulen-7-yl)prop-2-en-1-one] | 0.005 to 0.015 | 250 to 500 | > 3000 |

Reference: patent US20250346600A1, “TRICYCLIC DERIVATIVES AND RELATED USES” (MOMA Therapeutics, Inc., priority 2023, published 2025)
